This note sets out measurements from patent US7598279B2, “Neurotherapeutic azole compounds” (SK Holdings Co., Ltd., priority 2005, dated 2009).

By inhibition is commonly meant the relative decrease from the control value, in per cent.

The test system of experiment [1] is mice. In words: Maximal ElectroShock (MES)-induced tonic seizure test. The experiment is classed as in vivo. The note with it: Mus musculus; for ED50: read-out: Mice MES ED50 (mpk/peak time); for responders at 50 mg/kg: 4 h. As to the method:
The “Maximal ElectroShock (MES)” test is a well-established pharmacological screening method for anticonvulsants against tonic-clonic seizures. The procedure employed in the MES test for anticonvulsants is as follows. The compounds to be tested were dissolved in 30% PEG400 and administered ip and po into animals. After the designated number of hours, maximal electroshock (50 mA, 60 Hz, 0.2 sec) was applied into animals via corneal electrodes using IITC Life Science model 11A Shocker. […] Median efficacy dose (ED50) levels were determined using three different dose levels with at least 8 mice in each group.
(Protection in the maximal electroshock model is a classic sign of anticonvulsant action.)

The subject of experiment [2] is mice. The experiment in a line: Pentylenetetrazol (PTZ)-induced clonic seizure test. The experiment is classed as in vivo. The note with it: Mus musculus, sc, read-out: Mice PTZ ED50 (mpk/peak time). As to the method:
The “Pentylenetetrazol (PTZ)” test for anticonvulsant and antianxiety activity was also carried out.
The procedure employed in the PTZ test is as follows. The compounds to be tested were dissolved in 30% PEG400 and administered ip and po into animals. After the designated number of hours, each animal was injected subcutaneously with 100 mg/kg of PTZ (CD97 dose) and observed for up to 30 minutes for the presence or absence of clonic spasms over 5 seconds. Median efficacy dose (ED50) levels were determined using three different dose levels with 8 mice in each group.

For experiment [3], the system named is mice. In words: Forced swimming test (FST). The settings on record: 30 min after dosing. The format is in vivo. As to the method:
The “Forced swimming test (FST)” for antidepressant activity was also carried out. The procedure employed in the FST for antidepressant is as follows. The compounds to be tested were dissolved in 30% PEG400 and administered ip and po into animals. 30 min later, the immobility time during post 4 minutes of 6 minutes experiment time was measured.

The test system of experiment [4] is TBPS site of GABA-A receptor. In words: GABA-A receptor (TBPS site) binding assay, [35S]TBPS. The settings on record: 100 μM; rat brain membranes, 2 nM [35S]TBPS. As to the method:
Compounds of the inventions were tested for specific binding to TBPS (t-butyl bicyclophosphorothionate) site, an allosteric modulator site of GABA-A receptor as modified from G. Maksay and M. Simonyi, Eur. J. Pharmacol. 1985, 117(2), 275. and Gee, K. W. et al., J. Pharm. Exp. Ther. 1988, 246, 803.
This binding assay was performed using [35S] TBPS as radioligand in washed crude membrane homogenate from rat brains. Membrane preparations were carried out according to procedure described below. Sprague-Dawley (SD) rat weighting 230 g were killed by decapitation and their whole brains were rapidly removed and its cerebellums were excluded. The dissected brains were homogenized for 30 sec in 10 volumes (W/V) of ice-cold 0.32 M Sucrose and 50 mM Tris-citrate buffer pH 7.4 using glass homogenate. The homogenate was centrifuged at 2,000×g for 5 min at 4° C. And the supernatant re-centrifuged at 50,000×g for 20 min at 4° C. The supernatant was discarded and the resulting pellets were resuspended in 10 volumes (W/V) of ice-cold 50 mM Tris-citrate buffer pH 7.4. And then the suspended pellet was centrifuged at 50,000×g for 20 min at 4° C. The resulting pellets were suspended again in 32 volumes (W/V) of ice-cold 50 mM Tris-citrate buffer pH 7.4 with 0.05% Triton X-100 and then incubated in 37° C. for 60 min using a water bath. The incubated suspension was centrifuged at 50,000×g for 20 min at 4° C. Resuspending and centrifugation step of the remained pellets were repeated twice at the same manner and final pellets were resuspended in 10 volumes (W/V) of ice-cold 50 mM Tris-citrate buffer pH 7.4 to enable distribution of 2 ml aliquot in microcentrifuge tube, which were used immediately or kept at −80° C. for no more than 1 month before use.
For TBPS site binding assay, 50 μl of the tested compound were added to 100 μg membrane protein suspended in 0.15 ml of 50 mM Tris-citrate buffer with 200 mM NaCl pH 7.4 in presence of 2 nM of [35S] TBPS. The incubation of mixtures were carried out for 1.5 hours at 25° C. and then rapidly filtered over Whatman GF/C glass fiber filters, followed by twice 4.5 ml rinses with ice-cold incubation buffer. The filters were placed in counting vials and 4 ml scintillation solution. The vials were counted in a Beckman scintillation counter. Non-specific binding was determined in parallel incubations with 100 μM picrotoxin.
IC50 values for TBPS site binding assay was calculated using Graphpad PRISM v.3.00.

In another experiment the target is T1, rat dopamine transporter (Rattus norvegicus, UniProt P23977).
T1 construct: expressed in transfected cells
T1 sequence (P23977 whole entry): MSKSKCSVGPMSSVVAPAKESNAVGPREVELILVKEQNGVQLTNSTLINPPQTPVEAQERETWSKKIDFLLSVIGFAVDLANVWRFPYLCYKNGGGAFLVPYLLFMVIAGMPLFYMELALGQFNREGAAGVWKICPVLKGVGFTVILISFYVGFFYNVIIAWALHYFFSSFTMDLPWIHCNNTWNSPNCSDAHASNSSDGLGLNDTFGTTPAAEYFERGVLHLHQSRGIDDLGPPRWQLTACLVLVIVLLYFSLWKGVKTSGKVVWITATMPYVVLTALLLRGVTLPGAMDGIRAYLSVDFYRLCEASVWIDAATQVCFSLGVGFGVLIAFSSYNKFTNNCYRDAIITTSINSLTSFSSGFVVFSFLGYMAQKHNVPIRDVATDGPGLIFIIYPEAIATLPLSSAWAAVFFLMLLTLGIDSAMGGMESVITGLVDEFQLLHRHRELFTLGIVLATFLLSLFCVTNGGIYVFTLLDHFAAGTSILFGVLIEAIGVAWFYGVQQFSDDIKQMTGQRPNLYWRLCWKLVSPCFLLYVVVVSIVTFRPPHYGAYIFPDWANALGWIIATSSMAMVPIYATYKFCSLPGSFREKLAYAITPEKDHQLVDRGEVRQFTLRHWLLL
In words: Dopamine transport (DAT) assay, [3H]dopamine uptake in CHO D8 cells. The experiment is classed as cell-based. As for the experimental part: The “Dopamine Transport (DAT)” assay for dopamine uptake inhibition was also carried out. In order to test dopamine uptake inhibition, compounds of the inventions were assayed as modified from Zhaoping Liu et. al., Neuropharmacology, 2001, 41, 464.
Cultured CHO cells were […] with recombinant plasmid, DAT-pCDNA3, which encodes rat dopamine transporter. Several subclones were selected and assayed for [3H] dopamine uptake. The clone with the highest uptake, designated D8, was chosen for Dopamine transport assay of compounds.
For the Dopamine transport assay, D8 cells were cultured in 48-well plate using RMPI1640 containing 10% FCS. D8 cells, grown to 60,000 cells per well, each wells were rinsed once with phosphate buffered saline (PBS) and pre-incubated in 100 μl Hank's balanced salt solution (HBSS) for 10 min at room temperature. The buffer was then changed to 50 μl HBSS containing the tested compounds and 350 μl HBSS containing reaction components ([3H] dopamine, ascorbic acid and pargyline). Final concentrations of [3H] dopamine, ascorbic acid and pargyline are 151 nM, 100 μM and 100 μM, respectively. The cells were incubated for 20 min at room temperature and the reaction was terminated by aspiration of the buffer and washed three times with 1 ml cold BS. The cells were then solubilized in 2N NaOH and an aliquot was measured by liquid scintillation counting to quantify the uptake of [3H] dopamine.

The test system of experiment [5] is mice. The experiment in a line: Light-Dark Box (LDB) test. The format is in vivo. The note with it: treated 30 min prior to testing. As for the experimental part:
Light-Dark Box (LDB) test, one of the unconditioned conflict tests, was used to investigate anxiolytic activity for several drugs such as Diazepam, Buspirone, etc (Allikmets et al, 1996; Belzung and Griebel, 2001; Cutler and Aitken, 1991; Leyre et al, 2004). In the present study, anxiolytic effect of azole compounds containing carbamoyl group represented by general structural formula (IX) was investigated on the LDB test in mice.
The animals were treated with compound 30 min prior to testing. The light-dark box consisted of a plexiglas apparatus measuring 45 cm×27 cm×27 cm (L×W×H), and was partitioned into two compartments, one fully opaque (dark compartment made of black plexiglas: 18 cm of total length of apparatus), while the second was lit from the compartment ceiling by a 100 W bulb. A small opening (7×7 cm) in the partition wall allowed free passage between the light and dark compartments.
Animals were placed at the lit compartment first, and the latency for escape into dark was checked and tested in the LDB for 5 min after the first entering into dark box. The animal, which the latency was over 2 min, was excluded from the test. Total time spent in the light compartment was counted. Movement of animal was checked through the TV-CCD camera by an experienced observer blind to the conditions of the experiment. A mouse whose four paws were in the new box was considered as having changed box.

Setting [6] is: read-out: Mice MES Protection % (mpk/peak time).

SMILES strings stand for the structures.

For the molecule `NC(=O)OC(Cn1nccn1)c1ccccc1Cl` (stereo not shown) [Example 1, Carbamic acid 1-(2-chloro-phenyl)-2-[1,2,3]triazol-2-yl-ethyl ester], the figures for the ED50 with mice [1] (0.5 h) and in the experiment on mice [2] (0.5 h) were 10.7 mg/kg and 24.5 mg/kg, respectively. The “Mice FST Reduction of immobility %” value in the experiment on mice [3] is “N.S”. Further, the “TBPS Inhibition % (At 100 μM)” value in experiment [4] came out at 18.3%. For the same molecule, the inhibition at 10 µM at rat dopamine transporter was found to be 47.3%.
As for `NC(=O)OC(Cn1ncnn1)c1ccccc1` (stereo not shown) [Example 4, Carbamic acid 1-phenyl-2-tetrazol-2-yl-ethyl ester], the responders at 30 mg/kg with mice [1] (0.5 h, read-out: Mice MES Protection % (mpk/peak time)) is 66.7%. The “Mice FST Reduction of immobility %” value with mice [3] (dose not given) came to 40.3%. Also, at rat dopamine transporter, the inhibition at 10 µM came out at 41.5%.
Take `NC(=O)OC(Cn1nccn1)c1ccccc1` (stereo not shown) [Example 7, Carbamic acid 1-phenyl-2-[1,2,3]triazol-2-yl-ethyl ester]: the ED50 with mice [1] (0.5 h) was found to be 26.2 mg/kg. Besides, the inhibition at 10 µM on rat dopamine transporter is -21.1%.
`NC(=O)O[C@@H](Cn1ncnn1)c1ccccc1Cl` [Example 20, Carbamic acid (R)-1-(2-chloro-phenyl)-2-tetrazol-2-yl-ethyl ester]: the figures for the ED50 with mice [1] (0.5 h) and in the experiment with mice [2] (0.5 h) were 4.24 mg/kg and 3.76 mg/kg, respectively. The “Mice FST Reduction of immobility %” value with mice [3] (dose not given) is −24.3%. Moreover, the inhibition at 10 µM at rat dopamine transporter was 7.1%.
On to `NC(=O)O[C@H](Cn1ncnn1)c1ccccc1Cl` [Example 21, Carbamic acid (S)-1-(2-chloro-phenyl)-2-tetrazol-2-yl-ethyl ester], for which the ED50 turned out to be 14.2 mg/kg in the experiment on mice [1] (0.5 h) and 28.8 mg/kg in the experiment on mice [2] (0.5 h). Also, the inhibition at 10 µM at rat dopamine transporter is 20.9%.
In the case of `NC(=O)OC(Cn1nccn1)c1ccc(Cl)c(Cl)c1` (stereo not shown) [Example 25, Carbamic acid 1-(3,4-dichloro-phenyl)-2-[1,2,3]triazol-2-yl-ethyl ester], the responders at 50 mg/kg with mice [1] (setting [6]) stood at 100%. Besides, the “Mice FST Reduction of immobility %” value with mice [3] (dose not given) is recorded as 94.1%. For the same molecule, the inhibition at 10 µM at rat dopamine transporter worked out at 70.7%.
As for `NC(=O)OC(Cn1ncnn1)c1ccc(Cl)c(Cl)c1` (stereo not shown) [Example 26, Carbamic acid 1-(3,4-dichloro-phenyl)-2-tetrazol-2-yl-ethyl ester], the responders at 50 mg/kg in the experiment on mice [1] (setting [6]) stood at 100%. Also, in the experiment on mice [3] (dose not given), the “Mice FST Reduction of immobility %” value is on record as 97.5%. In addition, the inhibition at 10 µM against rat dopamine transporter came to 88.2%.
As to `NC(=O)OC(Cn1nccn1)c1ccc(Cl)cc1Cl` (stereo not shown) [Example 29, Carbamic acid 1-(2,4-dichloro-phenyl)-2-[1,2,3]triazol-2-yl-ethyl ester], the “Mice LDB % Duration in the light box” value with mice [5] (dose not given) is given as 288.5% ^. The ED50 with mice [1] (1 h) stood at 14.4 mg/kg; in the experiment on mice [2] (1 h) it was 16.8 mg/kg. Moreover, the “Mice FST Reduction of immobility %” value in the experiment on mice [3] was “N.S”. The inhibition at 10 µM against rat dopamine transporter was -27.5%.
Take `NC(=O)OC(Cn1ncnn1)c1ccc(Cl)cc1Cl` (stereo not shown) [Example 30, Carbamic acid 1-(2,4-dichloro-phenyl)-2-tetrazol-2-yl-ethyl ester]: the “Mice LDB % Duration in the light box” value in the experiment with mice [5] (dose not given) is recorded as 143.6% ^. The ED50 amounted to 14.9 mg/kg in the experiment with mice [1] (1 h) and 12.2 mg/kg in the experiment with mice [2] (1 h). Besides, the “Mice FST Reduction of immobility %” value in the experiment with mice [3] is listed as “N.S”. Besides, the inhibition at 10 µM on rat dopamine transporter turned out to be 15.1%.
As for `CNC(=O)O[C@@H](Cn1ncnn1)c1ccccc1Cl` [Example 45, Methyl-carbamic acid (R)-1-(2-chloro-phenyl)-2-tetrazol-2-yl-ethyl ester], the “Mice LDB % Duration in the light box” value in the experiment with mice [5] was “N.S”. The figures for the ED50 in the experiment on mice [1] (0.5 h) and in the experiment on mice [2] (0.5 h) were 4.88 mg/kg and 5.81 mg/kg, respectively. The inhibition at 10 µM against rat dopamine transporter is -58.1%.
For `NC(=O)O[C@H](Cn1nccn1)c1ccc(Cl)c(Cl)c1` [Example 87, Carbamic acid (S)-1-(3,4-dichloro-phenyl)-2-[1,2,3]triazol-2-yl-ethyl ester], the “Mice LDB % Duration in the light box” value with mice [5] was “N.S”. Further, the ED50 in the experiment on mice [1] (0.5 h) was 14.8 mg/kg. For the same molecule, the “Mice FST Reduction of immobility %” value in the experiment with mice [3] (dose not given) was 92.5%. The “TBPS Inhibition % (At 100 μM)” value in experiment [4] was 50.1%. Besides, the inhibition at 10 µM against rat dopamine transporter was 93.8%.
As to `NC(=O)O[C@H](Cn1ncnn1)c1ccc(Cl)c(Cl)c1` [Example 96, Carbamic acid (S)-1-(3,4-dichloro-phenyl)-2-tetrazol-2-yl-ethyl ester], the ED50 in the experiment on mice [1] (0.5 h) stood at 10.4 mg/kg. The “Mice FST Reduction of immobility %” value in the experiment on mice [3] (dose not given) is reported as 95.8%. In addition, the inhibition at 10 µM against rat dopamine transporter came out at 98.4%.
For `NC(=O)O[C@@H](Cn1ncnn1)c1c(Cl)cccc1Cl` [Example 126, Carbamic acid (R)-1-(2,6-dichloro-phenyl)-2-tetrazol-2-yl-ethyl ester], the “Mice LDB % Duration in the light box” value in the experiment on mice [5] (dose not given) was determined as 241.5% ^. Besides, the ED50 in the experiment on mice [1] (0.5 h) came to 2.7 mg/kg; in the experiment on mice [2] (0.5 h) it was 5.06 mg/kg. Besides, in the experiment with mice [3] (dose not given), the “Mice FST Reduction of immobility %” value is 72.0%. Further, the “TBPS Inhibition % (At 100 μM)” value in experiment [4] is reported as 0.3%.
For `NC(=O)O[C@@H](Cn1ccnn1)c1ccc(Cl)cc1Cl` [Example 130, Carbamic acid (R)-1-(2,4-dichloro-phenyl)-2-[1,2,3]triazol-1-yl-ethyl ester], in the experiment on mice [5], the “Mice LDB % Duration in the light box” value is given as “N.S”. The ED50 is 24 mg/kg in the experiment on mice [1] (0.5 h) and 8 mg/kg in the experiment on mice [2] (0.5 h). The “Mice FST Reduction of immobility %” value in the experiment on mice [3] (dose not given) was 8.8%. For the same molecule, the “TBPS Inhibition % (At 100 μM)” value in experiment [4] amounted to 42.8%.
